Experimental data taken from US12630856B2, “Identification of host-targeting modulators of bacterial uptake and assay for quantifying intracellular bacteria” (priority 2020, dated 2026).
Where a name gives a salt, the structure may show the parent alone.

Experiments:
Format in all cases: cell-based
[1] = tested on: Escherichia coli uptake by RAW 264.7 macrophages; test: CFU-less assay (CLA) screen of 2,400 approved drugs for modulators of bacterial uptake
Salmonella species = test: Attenuation of infection by Salmonella
Acinetobacter species = test: Attenuation of infection by Acinetobacter
Klebsiella species = test: Attenuation of infection by Klebsiella
[2] = tested on: intracellular and extracellular bacterial strains in RAW 264.7 macrophages; test: Uptake and intracellular survival of bacterial strains in RAW 264.7 macrophages (FIG. 21)
Excerpt: This confirms the results of the screen and expands potential uses. Quinacrine was previously known as an antiparasitic, an anti-inflammatory agent, intrapleural sclerosing agent, a pneumothorax prophylaxis, Creutzfeldt-Jakob disease (CJI)) therapy, and as an anticancer agent (FIG. 21).

Pseudomonas species = test: Attenuation of infection by Pseudomonas
bacterial uptake = test: CFU plating to confirm uptake enhancement
Description: CFU plating was performed to confirm the enhancement.

E. coli = test: Axenic growth of bacteria (CFU-less assay / optical density); conditions: varying amounts of compound, FIG. 19
Excerpt: In some embodiments, methods for measuring bacterial growth rate in axenic culture are described. The methods comprise: • (a) expressing in the bacteria a fluorescent protein; • (b) growing the bacteria in axenic culture; and • (c) measuring fluorescence in the culture at regular intervals.
The CFU-less assay can reliably detect compound cytotoxicity in axenic medium. The compound(s) of interest were combined with either the host cell or the pathogen in an axenic medium to analyze toxicity of the compound(s) on the host cell or pathogen. The graphs below show an example of how the compounds from the screen affect axenic growth of E. coli. The effects of the compounds on axenic growth of E. coli were minimal.

CCN(CC)CCCC(C)Nc1c2ccc(Cl)cc2nc2ccc(OC)cc12 (stereo not shown) [Quinacrine hydrochloride]
intracellular load of bacteria ([1]; screen of 2,400 compounds): decreases the intracellular load of bacteria
infection by Salmonella species (Salmonella species): attenuated infection
infection by Acinetobacter species (Acinetobacter species): attenuated infection
infection by Klebsiella species (Klebsiella species): attenuated infection
intracellular survival of both intracellular and extracellular bacterial strains [2]: inhibitory effect
uptake of both intracellular and extracellular bacterial strains (dT) ([2]; FIG. 21): inhibitory effect (increased dT)
infection by Pseudomonas species (Pseudomonas species): attenuated infection

CO[C@H]1C[C@H](O[C@H]2[C@H](C)O[C@@H](O[C@@H]3/C(C)=C/C[C@@H]4C[C@@H](C[C@]5(C=C[C@H](C)[C@@H](C6CCCCC6)O5)O4)OC(=O)[C@@H]4C=C(C)[C@@H](O)[C@H]5OC/C(=C\C=C\[C@@H]3C)[C@]54O)C[C@@H]2OC)O[C@@H](C)[C@@H]1O [Doramectin]
bacterial uptake in the presence of the compound (FIG. 2) [1]: increase in bacterial uptake
confirmation of uptake enhancement by CFU plating (bacterial uptake): enhancement

Polymyxin B sulfate
gram-negative bacterial growth in axenic culture (E. coli): inhibition of gram-negative bacterial growth
